Data taken from publication PMC10223062, “Discovery of Novel Thiophene/Hydrazones: In Vitro and In Silico Studies against Pancreatic Cancer” (Pharmaceutics, 2023).

Legend:
MIA PaCa-2 cell line = experiment: 2D anticancer activity, MTT assay; format: cell-based; conditions: Homo sapiens, 72 h exposure, read-out: IC50 in 2D cultured MIA PaCa-2 cell line
Protocol: For the preliminary assessment of anticancer activity in a 2D cell culture system, an MIA PaCa-2 human pancreas epithelial carcinoma (CRL-1420™) cell line (ATCC, Manassas, VA, USA) was cultured in Dulbecco’s Modified Eagle Medium with 10% fetal bovine serum (FBS, v/v) (Gibco, Billings, MT, USA) and supplemented with 1% antibiotics (10,000 μg/mL streptomycin and 10,000 U/mL penicillin) (Gibco, Billings, MT, USA) at 37 °C in a humidified 5% CO2 atmosphere. For the in vitro modeling of the tumor microenvironment, compounds were also tested in a 3D spheroid test system. For this purpose, the MIA PaCa-2 human pancreas epithelial carcinoma (CRL-1420™) cell line and human dermal fibroblast cell line HDF (PCS-201-012) cells were used.
For the assessment of anticancer activity of the compounds, the MIA PaCa-2 cells were plated in 48-well microplates at 1.5 × 10^5 cells/mL and incubated for 24 h at 37 °C in 5% CO2 in accordance with a previously reported method. Following the day, the cells were treated with compounds in various concentrations between 0.1–100 µM dissolved in dimethyl sulfoxide (DMSO) (Sigma Aldrich, St. Louis, MO, USA). Following the 72 h of incubation, culture mediums were discarded and 0.5 mg/mL 3-(4,5-Dimethylthiazol-2-yl)-2,5-Diphenyltetrazolium Bromide (MTT) (Sigma Aldrich, St. Louis, MO, USA) was added to each well for an additional 2 h at 37 °C. After 2 h incubation, the medium was discarded and 100 µL of isopropanol (Sigma Aldrich, St. Louis, MO, USA) was added to the wells to dissolve formazan crystals. The optical density was measured at 570 nm wavelength using a microplate reader (Thermo Fisher Scientific Multiskan, Finland). Doxorubicin hydrochloride (DOX) (European Pharmacopoeia standard, Sigma) was used as internal positive control, and 0.5% DMSO (v/v) was used as negative control. The percentage of cell viability was determined by using the following equation:(1) Viability %=(Absorbancecompound)/(Absorbancenegative control)×100%

HaCaT cell line = experiment: Cell viability (cytotoxicity) in healthy cells, MTT assay; format: cell-based, human; conditions: for IC50: Homo sapiens, HaCaT, MTT, 72 h, healthy keratinocytes, read-out: IC50 in 2D cultured HaCaT cell line; for Selectivity, cancer vs healthy cell line: MIA PaCa-2 vs healthy cell line (HaCaT)
Protocol: HaCaT human healthy keratinocyte cells (CRL-2404™) (ATCC, Manassas, VA, USA) were cultured in DMEM (10% FBS, v/v) (Gibco, Billings, MT, USA), respectively and supplemented with 1% antibiotics (10.000 μg/mL streptomycin and 10.000 units/mL penicillin) (Gibco, Billings, MT, USA) at 37 °C in a humidified atmosphere of 5% CO2. For the preliminary assessment of the cytotoxicity of selected potent compounds in healthy cells, HaCaT cells were seeded 2 × 10^5 cells/mL in 96-well plate and incubated for 24 h. The following day the 7a, 7d, and 7f compounds were applied similarly as in the MIA PaCa-2 cytotoxicity protocol between concentrations 0.62–100 µM for 72 h and then MTT was applied.

COX-2 = biological target: T1, COX-2 (Homo sapiens, UniProt P35354); experiment: Fluorometric COX-2 inhibitor screening kit; conditions: for COX-2 Percent of İnhibition: at 10 µM; for IC50: COX-2 IC50
T1 sequence (P35354 18-604): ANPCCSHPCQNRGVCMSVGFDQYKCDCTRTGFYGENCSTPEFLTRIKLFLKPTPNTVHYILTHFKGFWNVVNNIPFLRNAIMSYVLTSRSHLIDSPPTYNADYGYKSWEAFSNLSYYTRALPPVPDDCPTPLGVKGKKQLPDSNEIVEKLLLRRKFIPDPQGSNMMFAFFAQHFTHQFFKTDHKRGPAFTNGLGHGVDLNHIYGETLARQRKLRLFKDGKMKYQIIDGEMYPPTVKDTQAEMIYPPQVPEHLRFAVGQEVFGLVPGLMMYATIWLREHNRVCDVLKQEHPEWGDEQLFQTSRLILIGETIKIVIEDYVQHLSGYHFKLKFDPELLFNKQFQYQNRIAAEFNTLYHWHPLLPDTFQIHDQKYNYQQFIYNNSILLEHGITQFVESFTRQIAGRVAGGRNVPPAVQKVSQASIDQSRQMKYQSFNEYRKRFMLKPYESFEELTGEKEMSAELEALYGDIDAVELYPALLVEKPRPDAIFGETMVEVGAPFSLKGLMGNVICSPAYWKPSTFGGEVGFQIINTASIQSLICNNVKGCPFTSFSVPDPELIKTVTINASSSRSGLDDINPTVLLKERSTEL
Protocol: (§1) COX-1 and COX-2 inhibitory activities were tested using fluorometric COX-1 and COX-2 inhibitor screening kits (Abcam, United Kingdom), and the 5-LOX inhibitory activity was tested using a fluorometric 5-LOX inhibitor screening kit (MyBioSource, USA). These assays are based on the fluorometric detection of Prostaglandin G2 (a product generated by the COX enzyme) or on the fluorometric detection of the intermediate generated by the 5-LOX enzyme.
(§2) For the determination of COX-1 and COX-2 inhibitory activity, the tested compounds were dissolved in dimethyl sulfoxide (DMSO, 5 mM stock solution) and then diluted with the same solvent to obtain the test solutions. The test solutions were further diluted 5× with COX Assay Buffer (2 µL of test solution: 8 µL COX Assay Buffer). […] Solvent Control (SC) was prepared by adding 2 µL DMSO and 8 µL COX Assay Buffer, while Sample (S) and Enzyme Control (EC) were prepared by adding 10 µL of diluted test solution and COX Assay Buffer, respectively, into assigned wells.
(§3) EC, SC, IC, and all test solutions were analyzed in triplicate.

COX-1 = biological target: T2, COX-1 (Ovis aries, UniProt P05979); experiment: Fluorometric COX-1 inhibitor screening kit
T2 sequence (P05979 25-600): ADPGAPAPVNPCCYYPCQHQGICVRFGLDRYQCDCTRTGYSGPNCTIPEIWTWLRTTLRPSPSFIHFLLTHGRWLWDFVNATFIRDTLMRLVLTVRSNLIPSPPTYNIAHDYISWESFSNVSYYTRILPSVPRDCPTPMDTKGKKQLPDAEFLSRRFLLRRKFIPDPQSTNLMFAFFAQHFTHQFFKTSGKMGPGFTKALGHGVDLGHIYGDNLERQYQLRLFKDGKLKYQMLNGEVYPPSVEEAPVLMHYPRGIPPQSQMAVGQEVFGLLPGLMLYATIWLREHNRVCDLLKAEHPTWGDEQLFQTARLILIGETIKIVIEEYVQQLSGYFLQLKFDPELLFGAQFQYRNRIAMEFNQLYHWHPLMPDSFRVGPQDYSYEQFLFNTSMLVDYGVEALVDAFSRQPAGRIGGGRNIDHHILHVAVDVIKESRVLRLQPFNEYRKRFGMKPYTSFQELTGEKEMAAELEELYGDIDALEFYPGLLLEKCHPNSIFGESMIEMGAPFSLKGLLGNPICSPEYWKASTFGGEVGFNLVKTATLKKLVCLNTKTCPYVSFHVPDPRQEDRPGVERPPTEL
Protocol: as §1, §2, §3

`O=C(N/N=C/c1ccccc1O)c1cc(-c2ccccc2)c(-c2ccccc2)s1` [7a, N’-[(E)-(2-hydroxyphenyl)methylidene]-4,5-diphenylthiophene-2-carbohydrazide] was tested, and the IC50 (MIA PaCa-2 cell line) was 7.51 ± 0.08 µM, the IC50 (HaCaT cell line) was 0.88 ± 0.06 µM and the “Selectivity, cancer vs healthy cell line” value (HaCaT cell line) was “cytotoxic effects on healthy cell line too”. For the same molecule, the “COX-2 Percent of İnhibition” value (COX-2) was 13.57 ± 0.38%.
In the case of `O=C(N/N=C/c1ccc(O)cc1)c1cc(-c2ccccc2)c(-c2ccccc2)s1` [7c, N’-[(E)-(4-hydroxyphenyl)methylidene]-4,5-diphenylthiophene-2-carbohydrazide], the IC50 (MIA PaCa-2 cell line) is reported as 42.8 ± 3.59 µM, the IC50 (COX-2) is reported as 10.1 ± 0.25 µM and the “COX-2 Percent of İnhibition” value (COX-2) is reported as 51.97 ± 2.51%. It also gave an IC50 (COX-1) of over 100 µM.
With `COc1ccccc1/C=N/NC(=O)c1cc(-c2ccccc2)c(-c2ccccc2)s1` [7d, N’-[(E)-(2-methoxyphenyl)methylidene]-4,5-diphenylthiophene-2-carbohydrazide] the IC50 (MIA PaCa-2 cell line) was 9.09 ± 1.04 µM, the IC50 (HaCaT cell line) was over 100 µM and the “Selectivity, cancer vs healthy cell line” value (HaCaT cell line) was “showed selectivity”. The “COX-2 Percent of İnhibition” value (COX-2) was 16.74 ± 3.36%.
With `COc1cc(/C=N/NC(=O)c2cc(-c3ccccc3)c(-c3ccccc3)s2)ccc1O` [7e, N’-[(E)-(3-methoxy-4-hydroxyphenyl)methylidene]-4,5-diphenylthiophene-2-carbohydrazide] the IC50 (MIA PaCa-2 cell line) was over 100 µM, the IC50 (COX-2) was 13.9 ± 0.76 µM and the “COX-2 Percent of İnhibition” value (COX-2) was 49.41±1.12%. The IC50 (COX-1) was over 100 µM.
For `COc1ccc(/C=N/NC(=O)c2cc(-c3ccccc3)c(-c3ccccc3)s2)cc1O` [7f, N’-[(E)-(3-hydroxy-4-methoxyphenyl)methylidene]-4,5-diphenylthiophene-2-carbohydrazide], the IC50 (MIA PaCa-2 cell line) was 4.86 ± 0.19 µM, the IC50 (HaCaT cell line) was 0.67 ± 0.13 µM and the “Selectivity, cancer vs healthy cell line” value (HaCaT cell line) was “cytotoxic effects on healthy cell line too”. For the same molecule, the IC50 (COX-2) was 39 ± 3.41 µM, the “COX-2 Percent of İnhibition” value (COX-2) was 38.41 ± 0.85% and the IC50 (COX-1) was over 100 µM.
